The record followed here is patent US11739098B2 (BRISTOL-MYERS SQUIBB COMPANY, priority 2017, dated 2023).

Type in all cases: cell-based
The target in one assay is T1, human TLR7 (Homo sapiens, UniProt Q9NYK1).
T1 construct: host or cells: HEK-Blue cells (HEK293-derived reporter line)
T1 sequence (Q9NYK1 27-1049): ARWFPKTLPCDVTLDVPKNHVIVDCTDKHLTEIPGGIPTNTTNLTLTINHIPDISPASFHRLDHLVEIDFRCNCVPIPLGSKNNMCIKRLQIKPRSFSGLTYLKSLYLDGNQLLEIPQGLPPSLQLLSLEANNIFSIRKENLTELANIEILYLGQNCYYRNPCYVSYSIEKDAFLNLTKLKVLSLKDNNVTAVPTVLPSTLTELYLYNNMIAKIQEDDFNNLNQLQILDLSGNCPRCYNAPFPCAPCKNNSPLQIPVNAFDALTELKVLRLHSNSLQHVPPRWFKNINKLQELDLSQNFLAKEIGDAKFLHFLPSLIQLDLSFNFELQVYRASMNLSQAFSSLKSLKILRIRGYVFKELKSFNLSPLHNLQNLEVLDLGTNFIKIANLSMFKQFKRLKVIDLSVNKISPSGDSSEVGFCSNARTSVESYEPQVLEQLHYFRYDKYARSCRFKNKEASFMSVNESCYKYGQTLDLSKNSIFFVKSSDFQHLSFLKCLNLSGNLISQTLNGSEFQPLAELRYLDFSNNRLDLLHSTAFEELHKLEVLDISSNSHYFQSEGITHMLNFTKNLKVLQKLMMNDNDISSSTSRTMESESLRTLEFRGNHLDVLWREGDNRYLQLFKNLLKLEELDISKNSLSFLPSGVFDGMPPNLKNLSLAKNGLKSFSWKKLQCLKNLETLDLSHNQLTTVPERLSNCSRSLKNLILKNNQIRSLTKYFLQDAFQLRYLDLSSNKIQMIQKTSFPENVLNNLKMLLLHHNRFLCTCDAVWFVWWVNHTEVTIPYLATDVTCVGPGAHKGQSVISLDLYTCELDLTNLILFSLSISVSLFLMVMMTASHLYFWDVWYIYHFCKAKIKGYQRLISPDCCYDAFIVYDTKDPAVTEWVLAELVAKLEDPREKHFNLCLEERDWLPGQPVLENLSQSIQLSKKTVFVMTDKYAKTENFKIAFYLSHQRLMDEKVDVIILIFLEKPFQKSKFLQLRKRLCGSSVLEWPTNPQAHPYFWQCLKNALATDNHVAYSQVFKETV
The experiment in a line: TLR7 inhibition reporter assay (HEK-Blue cells, SEAP reporter, gardiquimod stimulation). The conditions noted are these: HEK-Blue cells overexpressing human TLR7, SEAP reporter, gardiquimod 7.5 μM. Put shortly:
(§1)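 After 22 h at 37 °C, SEAP secretion was measured from human TLR7-, TLR8- or TLR9-expressing HEK-Blue reporter cells given compound (0.05 nM–50 μM) 30 min before agonist: 7.5 μM gardiquimod, 15.9 μM R848 or 5 nM ODN2006 respectively. Percent inhibition referenced to agonist-plus-DMSO and known-inhibitor wells.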

A further assay addresses T2, human TLR8 (Homo sapiens, UniProt Q9NR97).
T2 construct: host or cells: HEK-Blue cells (HEK293-derived reporter line)
T2 sequence (Q9NR97 27-1041): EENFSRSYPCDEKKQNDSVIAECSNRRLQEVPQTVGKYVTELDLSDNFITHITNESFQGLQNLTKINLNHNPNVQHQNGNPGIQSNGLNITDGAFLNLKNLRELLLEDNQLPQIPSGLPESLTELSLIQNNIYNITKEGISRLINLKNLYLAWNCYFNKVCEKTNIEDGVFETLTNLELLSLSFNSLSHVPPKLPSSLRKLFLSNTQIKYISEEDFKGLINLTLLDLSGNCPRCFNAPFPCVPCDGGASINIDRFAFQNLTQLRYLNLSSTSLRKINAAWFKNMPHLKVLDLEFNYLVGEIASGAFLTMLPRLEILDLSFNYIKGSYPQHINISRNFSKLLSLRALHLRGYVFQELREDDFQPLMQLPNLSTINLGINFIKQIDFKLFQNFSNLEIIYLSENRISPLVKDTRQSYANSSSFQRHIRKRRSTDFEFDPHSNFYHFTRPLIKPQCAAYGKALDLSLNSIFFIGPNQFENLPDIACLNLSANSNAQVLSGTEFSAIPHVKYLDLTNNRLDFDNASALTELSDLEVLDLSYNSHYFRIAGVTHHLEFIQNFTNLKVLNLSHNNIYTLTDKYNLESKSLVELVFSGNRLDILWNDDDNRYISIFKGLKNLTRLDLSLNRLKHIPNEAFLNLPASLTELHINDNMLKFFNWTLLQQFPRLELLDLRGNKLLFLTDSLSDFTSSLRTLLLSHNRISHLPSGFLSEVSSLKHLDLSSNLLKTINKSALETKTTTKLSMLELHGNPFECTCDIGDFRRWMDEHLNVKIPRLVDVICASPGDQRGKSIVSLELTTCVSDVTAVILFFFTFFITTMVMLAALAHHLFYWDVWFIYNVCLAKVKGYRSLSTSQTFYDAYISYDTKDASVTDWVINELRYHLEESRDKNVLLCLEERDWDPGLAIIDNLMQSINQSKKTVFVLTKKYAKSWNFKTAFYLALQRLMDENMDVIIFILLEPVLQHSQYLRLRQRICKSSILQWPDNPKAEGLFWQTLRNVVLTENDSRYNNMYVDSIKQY
The experiment in a line: TLR8 inhibition reporter assay (HEK-Blue cells, SEAP reporter, R848 stimulation). The conditions noted are these: HEK-Blue cells overexpressing human TLR8, SEAP reporter, R848 15.9 μM. Put shortly:
as §1

The target in the next assay is T3, human TLR9 (Homo sapiens, UniProt Q9NR96).
T3 construct: host or cells: HEK-Blue cells (HEK293-derived reporter line)
T3 sequence (Q9NR96 26-1032): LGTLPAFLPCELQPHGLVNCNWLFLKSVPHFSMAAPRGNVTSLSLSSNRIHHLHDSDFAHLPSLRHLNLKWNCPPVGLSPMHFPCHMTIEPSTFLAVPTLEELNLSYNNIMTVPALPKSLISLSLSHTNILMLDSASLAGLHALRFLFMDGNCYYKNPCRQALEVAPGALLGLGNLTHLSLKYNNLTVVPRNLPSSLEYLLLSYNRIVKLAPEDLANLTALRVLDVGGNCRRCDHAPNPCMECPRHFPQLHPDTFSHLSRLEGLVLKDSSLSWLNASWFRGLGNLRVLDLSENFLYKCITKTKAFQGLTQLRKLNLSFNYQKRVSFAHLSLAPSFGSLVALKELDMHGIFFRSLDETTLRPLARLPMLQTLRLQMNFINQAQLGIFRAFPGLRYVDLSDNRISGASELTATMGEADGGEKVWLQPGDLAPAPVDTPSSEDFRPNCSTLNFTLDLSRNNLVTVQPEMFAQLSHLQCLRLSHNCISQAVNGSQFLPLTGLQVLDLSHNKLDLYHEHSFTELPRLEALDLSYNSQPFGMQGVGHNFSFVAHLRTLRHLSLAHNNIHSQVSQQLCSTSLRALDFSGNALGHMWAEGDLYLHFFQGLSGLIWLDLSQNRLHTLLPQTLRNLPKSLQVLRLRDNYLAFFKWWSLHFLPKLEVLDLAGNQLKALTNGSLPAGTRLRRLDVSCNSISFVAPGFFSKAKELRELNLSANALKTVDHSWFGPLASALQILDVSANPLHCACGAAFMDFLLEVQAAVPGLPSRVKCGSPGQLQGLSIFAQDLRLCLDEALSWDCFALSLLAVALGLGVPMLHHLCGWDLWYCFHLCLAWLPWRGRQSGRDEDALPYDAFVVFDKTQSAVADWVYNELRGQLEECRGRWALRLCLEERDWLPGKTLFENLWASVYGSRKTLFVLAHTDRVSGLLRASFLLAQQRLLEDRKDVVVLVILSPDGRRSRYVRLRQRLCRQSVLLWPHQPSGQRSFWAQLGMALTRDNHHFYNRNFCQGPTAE
The experiment in a line: TLR9 inhibition reporter assay (HEK-Blue cells, SEAP reporter, ODN2006 stimulation). To be noted: HEK-Blue cells overexpressing human TLR9, SEAP reporter, ODN2006 5 nM. Put shortly:
as §1

Each structure is given as a SMILES string.

Regarding `CC(C)c1c(-c2cnc3c(cnn3C)c2)[nH]c2ccc(C3CCN(C(=O)CN(C)C)CC3)cc12` [Example 504, 2-(dimethylamino)-1-(4-(3-isopropyl-2-(1-methyl-1H-pyrazolo[3,4-b]pyridin-5-yl)-1H-indol-5-yl)piperidin-1-yl)ethan-1-one], the IC50 at human TLR7 was under 100 nM; against human TLR8, 100 to 1000 nM; at human TLR9, 1000 to 50000 nM.

Take `CC(C)c1c(-c2cnc3nn(C)cc3c2)[nH]c2ccc(C3CCN(C(=O)CN(C)C)CC3)cc12` [Example 505, 2-(dimethylamino)-1-(4-(3-isopropyl-2-(2-methyl-2H-pyrazolo[3,4-b]pyridin-5-yl)-1H-indol-5-yl)piperidin-1-yl)ethan-1-one]: the IC50 is 100 to 1000 nM against human TLR7, over 3130 nM against human TLR8 and 1000 to 50000 nM against human TLR9.

Take `CC(C)c1c(-c2ccc(C#N)c3ncccc23)[nH]c2ccc(C3CCN(C(=O)CN(C)C)CC3)cc12` [Example 506, 5-(5-(1-(dimethylglycyl)piperidin-4-yl)-3-isopropyl-1H-indol-2-yl)quinoline-8-carbonitrile]: the IC50 was under 100 nM against human TLR7, under 100 nM against human TLR8 and 1000 to 50000 nM against human TLR9.

As for `CC(C)c1c(-c2cc(C(F)(F)F)c3nccn3c2)[nH]c2ccc(C3CCN(C(=O)CN(C)C)CC3)cc12` [Example 507, 2-(dimethylamino)-1-(4-(3-isopropyl-2-(8-(trifluoromethyl)imidazo[1,2-a]pyridin-6-yl)-1H-indol-5-yl)piperidin-1-yl)ethan-1-one], the IC50 at human TLR7 was under 100 nM; against human TLR8, under 100 nM; on human TLR9, 100 to 1000 nM.

As for `CNCC(=O)N1CCC(c2ccc3[nH]c(-c4cc(C(F)(F)F)c5nccn5c4)c(C(C)C)c3c2)CC1` [Example 508, 1-(4-(3-isopropyl-2-(8-(trifluoromethyl)imidazo[1,2-a]pyridin-6-yl)-1H-indol-5-yl)piperidin-1-yl)-2-(methylamino)ethan-1-one], the IC50 is under 100 nM on human TLR7, 100 to 1000 nM against human TLR8 and 100 to 1000 nM at human TLR9.

As for `Cc1cn2cc(-c3[nH]c4ccc(C5CCN(C(=O)CN(C)C)CC5)cc4c3C(C)C)cc(C)c2n1` [Example 509, 2-(dimethylamino)-1-(4-(2-(2,8-dimethylimidazo[1,2-a]pyridin-6-yl)-3-isopropyl-1H-indol-5-yl)piperidin-1-yl)ethan-1-one], the IC50 was under 100 nM on human TLR7, under 100 nM at human TLR8 and 100 to 1000 nM on human TLR9.

Turning to `CNCC(=O)N1CCC(c2ccc3[nH]c(-c4cn5cc(C)nc5cc4C)c(C(C)C)c3c2)CC1` [Example 510, 1-(4-(2-(2,7-dimethylimidazo[1,2-a]pyridin-6-yl)-3-isopropyl-1H-indol-5-yl)piperidin-1-yl)-2-(methylamino)ethan-1-one], the IC50 at human TLR7 is under 100 nM; on human TLR8, 1000 to 50000 nM; at human TLR9, 100 to 1000 nM.

As for `Cc1cn2cc(-c3[nH]c4ccc(C5CCN(C(=O)CN(C)C)CC5)cc4c3C(C)C)cc(C(F)(F)F)c2n1` [Example 511, 2-(dimethylamino)-1-(4-(3-isopropyl-2-(2-methyl-8-(trifluoromethyl)imidazo[1,2-a]pyridin-6-yl)-1H-indol-5-yl)piperidin-1-yl)ethan-1-one], the IC50 on human TLR7 was under 100 nM; on human TLR8, 100 to 1000 nM; against human TLR9, 100 to 1000 nM.

As for `CC(C)c1c(-c2cc(Cl)c3ncccc3c2)[nH]c2ccc(C3CCN(C(=O)CN(C)C)CC3)cc12` [Example 512, 1-(4-(2-(8-chloroquinolin-6-yl)-3-isopropyl-1H-indol-5-yl)piperidin-1-yl)-2-(dimethylamino)ethan-1-one], the IC50 on human TLR7 is under 100 nM; on human TLR8 it was under 100 nM; against human TLR9, 1000 to 50000 nM.

By IC50 is commonly meant the midpoint of a concentration-inhibition curve. Low values mean greater potency in that assay, high ones weaker potency in that assay.
